Experiment [1] deals with T1, β-secretase (BACE-1) (Homo sapiens, UniProt P56817).
T1 construct: purchased Pan Vera; host or cells: baculovirus expression system
In words: Kinetic study against β-secretase (Lineweaver–Burk and Dixon plots). Type of experiment: biochemical. As for the experimental part: (§1) The Lineweaver–Burk plots were drawn to determine the type of inhibition these compounds display against AChE and BChE (refer to Figure S2. In the Supplementary Material for the corresponding graphs).
(§2) Kinetic evaluation of 2l and 2p against ChEs or β-secretase were conducted following similar procedures previously employed for the corresponding flavonol precursors.

Experiment [2] concerns the target T1, β-secretase (BACE-1). In words: In vitro β-secretase inhibitory FRET assay. Type of experiment: biochemical. The conditions noted are these: 60 min incubation, read-out: IC50 (µM) against β-secretase activity. As for the experimental part:
The inhibition ratio was calculated using the following equation:Inhibition (%) = [1 − (S − S0)/(C − C0)] × 100(1) where C is the fluorescence of control (enzyme, assay buffer, and substrate) after 60 min of incubation, C0 is the fluorescence of control at time 0, S is the fluorescence of tested samples (enzyme, sample solution, and substrate) after 60 min of incubation, and S0 the fluorescence of the tested samples at time 0.

Experiment [3] in a line: DPPH radical scavenging activity assay. The conditions noted are these: DPPH 0.20 mM in methanol, 45 min in the dark, mean ± SD. How it is done:
The test compounds at various concentration ranging from (0 to 40 µM) in DMSO were mixed with a solution of DPPH (0.20 mM) in methanol. […] All tests and analyses were run in triplicate and averaged. The inhibition was calculated in terms of percentage using the formula below:DPPH radical scavenged (%) = [(AbC ‒ AbS)/AbC] × 100(2) where AbC is absorbance of control and AbS the absorbance of the test sample.

For experiment [4], the target named is acetylcholinesterase (AChE) (Homo sapiens, UniProt P22303). Description: biochemical. Type of experiment: biochemical. As for the experimental part: (§3) The IC50 and standard deviation values were determined graphically using Graph Pad Prism.
acetylcholinesterase (AChE), sequence (P22303 32-614): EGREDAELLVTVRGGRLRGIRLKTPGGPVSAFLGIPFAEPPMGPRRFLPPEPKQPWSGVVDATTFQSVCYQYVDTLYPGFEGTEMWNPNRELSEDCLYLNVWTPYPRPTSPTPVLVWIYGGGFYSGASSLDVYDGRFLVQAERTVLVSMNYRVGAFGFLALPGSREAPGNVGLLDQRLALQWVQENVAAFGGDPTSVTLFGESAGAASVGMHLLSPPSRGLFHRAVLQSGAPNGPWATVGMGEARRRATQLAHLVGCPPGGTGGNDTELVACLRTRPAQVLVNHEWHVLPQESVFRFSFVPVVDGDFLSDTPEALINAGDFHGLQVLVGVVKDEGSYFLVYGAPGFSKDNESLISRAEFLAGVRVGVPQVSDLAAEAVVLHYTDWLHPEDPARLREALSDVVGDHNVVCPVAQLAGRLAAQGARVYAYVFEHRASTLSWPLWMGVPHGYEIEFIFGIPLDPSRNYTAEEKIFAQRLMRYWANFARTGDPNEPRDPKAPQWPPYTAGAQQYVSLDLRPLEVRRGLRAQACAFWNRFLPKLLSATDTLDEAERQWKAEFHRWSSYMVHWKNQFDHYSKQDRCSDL
In experiment [5] the target is butyrylcholinesterase (BChE) (Homo sapiens, UniProt P06276). In words: biochemical. As for the experimental part:
as §3

A further experiment has as its target BChE (Homo sapiens, UniProt P06276). In words: Kinetic study against BChE (Lineweaver–Burk and Dixon plots). The format is biochemical. As for the experimental part: as §1, §2
A further experiment deals with AChE (Homo sapiens, UniProt P22303). Description: Kinetic study against AChE (Lineweaver–Burk and Dixon plots). Type of experiment: biochemical. How it is done: as §1, §2
AChE, sequence (P22303 32-614): as above
The mark [6] stands for this setting: mean ± SD, three independent experiments.

T1 sequence (P56817 46-501): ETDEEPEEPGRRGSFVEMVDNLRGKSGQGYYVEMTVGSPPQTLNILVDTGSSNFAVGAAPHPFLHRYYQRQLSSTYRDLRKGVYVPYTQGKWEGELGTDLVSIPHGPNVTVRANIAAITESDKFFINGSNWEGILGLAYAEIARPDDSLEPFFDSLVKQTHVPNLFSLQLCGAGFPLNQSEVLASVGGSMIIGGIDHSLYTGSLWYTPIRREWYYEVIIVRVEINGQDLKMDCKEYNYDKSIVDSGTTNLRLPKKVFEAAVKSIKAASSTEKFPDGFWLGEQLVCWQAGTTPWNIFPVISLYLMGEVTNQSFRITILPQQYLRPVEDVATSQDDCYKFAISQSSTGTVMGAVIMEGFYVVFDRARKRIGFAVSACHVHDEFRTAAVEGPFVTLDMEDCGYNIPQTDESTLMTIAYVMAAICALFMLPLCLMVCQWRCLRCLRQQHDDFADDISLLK
butyrylcholinesterase (BChE), sequence (P06276 29-602): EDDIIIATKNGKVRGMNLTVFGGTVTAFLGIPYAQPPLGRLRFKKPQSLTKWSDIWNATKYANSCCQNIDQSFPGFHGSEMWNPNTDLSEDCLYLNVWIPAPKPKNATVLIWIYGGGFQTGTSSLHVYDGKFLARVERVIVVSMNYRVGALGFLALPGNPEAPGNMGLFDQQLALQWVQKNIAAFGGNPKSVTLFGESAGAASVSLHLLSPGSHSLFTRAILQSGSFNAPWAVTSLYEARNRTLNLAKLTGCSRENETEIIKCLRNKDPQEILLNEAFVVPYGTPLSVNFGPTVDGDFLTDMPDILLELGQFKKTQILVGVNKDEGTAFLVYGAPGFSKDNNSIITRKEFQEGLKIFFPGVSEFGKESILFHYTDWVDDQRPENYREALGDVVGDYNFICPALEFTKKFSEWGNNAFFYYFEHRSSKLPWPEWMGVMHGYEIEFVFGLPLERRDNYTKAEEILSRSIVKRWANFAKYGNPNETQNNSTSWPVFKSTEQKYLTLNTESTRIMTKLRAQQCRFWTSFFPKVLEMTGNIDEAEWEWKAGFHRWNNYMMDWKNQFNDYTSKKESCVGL
BChE, sequence (P06276 29-602): as above

For the compound `COc1ccc(-c2oc3cc(OC)c(I)cc3c(=O)c2OC2OC(COC(C)=O)C(OC(C)=O)C(OC(C)=O)C2OC(C)=O)cc1` (stereo not drawn) [Compound 2p, 6-Iodo-7-methoxy-2-(4-methoxyphenyl)-4H-chromen-4-one-3-O-2,3,4,6-O-tetraacetyl-β-d-glucopyranoside], the “Mode of inhibition of β-secretase” value at β-secretase (BACE-1) [1] (Lineweaver–Burk plot) is listed as “non-competitive”. In addition, the Ki on β-secretase (BACE-1) [1] (from Dixon plots, read-out: Ki for inhibition of β-secretase) was found to be 2.94 ± 0.02 µM; on BChE (from Dixon plots), 1.62 ± 0.03 µM; on AChE (from Dixon plots, read-out: Inhibition constant (Ki) against AChE) it was 2.36 ± 0.32 µM. Besides, the IC50 at β-secretase (BACE-1) [2] worked out at 25.2 ± 0.15 µM; in experiment [3], 17.9 ± 0.04 µM; in experiment [4] (setting [6]), 9.19 ± 0.03 µM; in experiment [5] (setting [6]) it was 5.21 ± 0.03 µM. For the same compound, the “SI BChE/AChE” value in experiment [4] (AChE selectivity index = IC50 (BChE)/IC50 (AChE)) stood at 0.57. Further, the “SI AChE/BChE” value in experiment [5] (BChE selectivity index = IC50 (AChE)/IC50 (BChE)) came out at 1.75. In addition, at BChE (Lineweaver–Burk plot), the “Mode of inhibition of BChE” value is given as “non-competitive”. At AChE (Lineweaver–Burk plot), the “Mode of inhibition of AChE” value is “non-competitive”.

The record behind these values is paper PMC6804162, “Inhibitory Effects of Novel 7-Substituted 6-iodo-3-O-Flavonol Glycosides against Cholinesterases and β-secretase Activities, and Evaluation for Potential Antioxidant Properties” (Molecules, 2019).
